The record followed here is patent US20230372382A1, “USE OF ADENOSINE DIPHOSPHATE RIBOSE FOR ADJUVANT THERAPY WITH RADIATION AND/OR ANTI-CANCER TREATMENT” (PearlsInMires Co., Ltd., priority 2021, published 2023).

Molecules are shown by their SMILES.

Assay [1] deals with AsPC-1 cells. Kind of assay: Cancer cell death verification (MTT cell viability). The format is cell-based.
Description: 3×10^3 Brain cancer (U-87MG), lung cancer (H1975), pancreatic cancer (Aspc-1), liver cancer (Hep G2), breast cancer (MDA-MB-231), colon cancer (HCT116), kidney cancer (Caki-1), gastric cancer (SNU-1) and ovarian cancer (OVCAR-3) cells were cultured in a 96-well plate under conditions of 37° C. and 5% CO2 for 24 hours, and then each cancer cell was treated with ADP-ribose at each concentration. After culturing for 24 hours under conditions of 37° C. and 5% CO2 again, 10 μl of 3-(4,5-dimethylthiazol-2-yl)-2,5-diphenyltetrazolium bromide reagent was added to each well and reacted for 1 hour. After the reaction was completed, the reagent was removed, 200 μl of dimethyl sulfoxide was added to each well, and the absorbance was measured to determine the concentration of half-lethality and maximum lethality compared to untreated cells.
3×10^3 AsPC-1 cells were cultured in a 96-well plate for 24 hours under conditions of 37° C. and 5% CO2, treated with ADP-ribose at concentrations of 0.125, 0.25, 0.5, 1, 2, 4, 8, 16, and 32 μM, respectively, and cultured again for 24 hours under conditions of 37° C. and 5% CO2. Then, 10 μl of 3-(4,5-dimethylthiazol-2-yl)-2,5-diphenyltetrazolium bromide reagent was added to each well and reacted for 1 hour. After the reaction was completed, the reagent was removed, 200 μl of dimethyl sulfoxide was added to each well, and the absorbance was measured to confirm cell viability.
The test system of assay [2] is Pancreatic cancer (AsPC-1) cells. Briefly: Xenograft model, oral ADP-ribose, tumor volume. The format is in vivo, BALB/c nude mice. Particulars: AsPC-1 xenograft, 5 times a week, control about 3194.3. Here is the method:
Pancreatic cancer (AsPC-1) or kidney cancer (Caki-1) cells (1×10^7 cells) were inoculated into 5-week-old BALB/c nude mice on the back flank, and the mice were grown up to approximately 150 mm^3 of the tumor volume. Then, three concentrations of ADP-ribose were administered subcutaneously, intravenously, and orally 3 times a week. The tumor size was measured every 6 days using a digital caliper, and the changes in tumor volume were compared for each group.
Pancreatic cancer (AsPC-1) cells (1×10^7) were inoculated into 5-week-old BALB/c nude mice on the back flank, and the mice were divided into four groups: the control group (Control) and groups administered orally with 10, 40, and 80 mg/kg of ADP-ribose. When the tumors were grown to a volume of approximately 150 mm^3, each concentration of ADP-ribose was orally administered 5 times a week. The tumor size was measured using a digital caliper, and the results of changes in tumor volume were compared by the group.

For `Nc1ncnc2c1ncn2[C@@H]1O[C@H](COP(=O)(O)OP(=O)(O)OC[C@H]2O[C@@H](O)C(O)C2O)C(O)C1O` (stereo partly drawn) [ADP-ribose, adenosine diphosphate ribose], in assay [1] (AsPC-1, 24 hours, MTT), the “maximum lethal dose (concentration at which almost all cells were killed)” value is 32 µM. For the same molecule, the “cancer cell growth under a microscope” value in assay [1] (AsPC-1, ADP-ribose treated vs control, FIG. 4A) was “inhibited from growing and killed”. Also, the IC50 in assay [1] (Homo sapiens, ASPC1, 24 h, read-out: half-lethal dose (concentration at which about half of the cells were killed)) was around 2 µM. Besides, the final tumor volume in assay [2] (10 mg/kg oral) is 1798.6 mm^3; in assay [2] (40 mg/kg oral), 1175.9 mm^3; in assay [2] (80 mg/kg oral) it was 1056.9 mm^3.
